According to US9682941B2, “Substituted biphenyl analogues as dual inhibitors of aromatase and sulfatase” (ESTRYX PHARMA LIMITED, priority 2013, dated 2017):

Legend:
steroid sulfatase = target: T1, steroid sulfatase (Homo sapiens, UniProt P08842); assay: Steroid sulfatase (STS) inhibition assay in JEG-3 cells ([6,7-3H] estrone sulfate); type: cell-based; settings: 1 hour at 37° C., duplicate
T1 construct: JEG-3 which constitutively expresses high amount of aromatase and steroid sulfatase; endogenous in cells; host or cells: JEG-3
T1 sequence (P08842 22-583): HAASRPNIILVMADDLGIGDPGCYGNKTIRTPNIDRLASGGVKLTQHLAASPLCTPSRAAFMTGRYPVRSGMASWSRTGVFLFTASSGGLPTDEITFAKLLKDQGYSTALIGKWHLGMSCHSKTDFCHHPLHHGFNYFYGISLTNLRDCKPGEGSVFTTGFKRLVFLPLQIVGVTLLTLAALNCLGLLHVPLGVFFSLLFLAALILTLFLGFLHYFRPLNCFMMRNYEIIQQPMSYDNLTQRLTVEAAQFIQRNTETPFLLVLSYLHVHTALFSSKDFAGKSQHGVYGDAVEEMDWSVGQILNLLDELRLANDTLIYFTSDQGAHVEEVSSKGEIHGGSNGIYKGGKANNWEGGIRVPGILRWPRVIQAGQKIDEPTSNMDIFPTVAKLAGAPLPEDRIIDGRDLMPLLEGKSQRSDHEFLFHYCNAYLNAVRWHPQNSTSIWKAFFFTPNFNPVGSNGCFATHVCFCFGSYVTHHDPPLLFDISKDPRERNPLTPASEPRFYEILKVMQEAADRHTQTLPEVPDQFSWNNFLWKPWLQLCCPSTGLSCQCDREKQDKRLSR
Procedure: (§1) Aromatase and steroid sulfatase enzymes inhibitions were evaluated in the human chorionic carcinoma cell line JEG-3 which constitutively expresses high amount of aromatase and steroid sulfatase.
For STS assay, JEG-3 cells were seeded into 24-well culture plates at 150,000 cells/ml/well and maintained in MEM containing supplements overnight. When reaching 80% confluent, the cells were washed once with serum-free MEM, loaded with 1 ml of substrate mix containing [6,7-3H] Estrone sulfate (E1S, 0.6 μCi/ml) and [4-14C] Estrone (E1, 4 nCi/ml) in the presence of compounds in a concentration series, and incubated for 1 hour at 37° C. The product [3H]E1 was separated from E1S by toluene partition using [4-14C]E1 to monitor extraction procedural losses, and the toluene fraction radioactivity was measured by a MicroBeta scintillation counter.
(§2) Experiments are performed in duplicate. The inhibitory concentration of 50% of the enzymatic activity is calculated.

aromatase = target: T2, aromatase (Homo sapiens, UniProt P11511); assay: Aromatase inhibition assay in JEG-3 cells ([1β-3H] androstenedione, tritiated water release); type: cell-based; settings: 1.25 hour incubation, duplicate
T2 construct: JEG-3 which constitutively expresses high amount of aromatase and steroid sulfatase; endogenous in cells; host or cells: JEG-3
T2 sequence (P11511 1-503): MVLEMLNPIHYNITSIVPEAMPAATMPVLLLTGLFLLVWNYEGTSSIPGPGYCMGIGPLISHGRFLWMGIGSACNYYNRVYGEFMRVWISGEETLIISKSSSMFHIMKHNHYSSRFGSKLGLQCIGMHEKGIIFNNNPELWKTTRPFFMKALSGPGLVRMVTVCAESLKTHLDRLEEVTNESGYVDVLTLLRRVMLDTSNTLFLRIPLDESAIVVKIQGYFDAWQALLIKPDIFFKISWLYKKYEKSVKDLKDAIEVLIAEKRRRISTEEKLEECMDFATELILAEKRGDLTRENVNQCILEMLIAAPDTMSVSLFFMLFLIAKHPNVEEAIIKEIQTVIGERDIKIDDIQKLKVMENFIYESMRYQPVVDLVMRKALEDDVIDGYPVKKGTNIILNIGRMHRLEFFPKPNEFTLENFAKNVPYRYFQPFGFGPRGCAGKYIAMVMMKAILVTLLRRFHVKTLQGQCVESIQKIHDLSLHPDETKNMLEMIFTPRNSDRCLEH
Procedure: as §1
For aromatase inhibition assay, JEG-3 cells were seeded into 96-well plates at 35,000 cells/well and maintained in MEM containing supplements. When reaching 80% confluent, the cells were washed once with serum-free MEM, incubated with [1β-^3H] androstenedione (A4, 0.2 μCi/ml) for 1.25 hour in the presence of the test substances added in a concentration series. The product, tritiated water (^3H2O), was separated using 2.5% (w/v) dextran-coated charcoal at 4-8° C. for 2 hours. The supernatant radioactivity was measured by a MicroBeta scintillation counter.
as §2

Row | Compound | IC50 (steroid sulfatase) | IC50 (aromatase)
1 | N#Cc1ccc(Cn2cnc3ccccc32)cc1-c1ccc(OS(N)(=O)=O)cc1 [Example 1, 5′-((1H-Benzo[d]imidazol-1-yl)methyl)-2′-cyano-[1,1′-biphenyl]-4-yl sulfamate] | 2 nM | 1.2 nM
2 | N#Cc1ccc(Nn2cnc3ccccc32)cc1-c1ccc(OS(N)(=O)=O)cc1 [Example 2, 5′-(1H-Benzo[d]imidazol-1-ylamino)-2′-cyano-[1,1′-biphenyl]-4-yl sulfamate] | 6.8 nM | 2 nM
3 | N#Cc1ccc(Cn2nnc3ccccc32)cc1-c1ccc(OS(N)(=O)=O)cc1 [Example 4, 5′-((1H-Benzo[d][1,2,3]triazol-1-yl)methyl)-2′-cyano-[1,1′-biphenyl]-4-yl sulfamate] | 12.1 nM | 4.8 nM
4 | N#Cc1ccc(N(CC2CC2)n2cnc3ccccc32)cc1-c1ccc(OS(N)(=O)=O)cc1 [Example 6, 5′-((1H-Benzo[d]imidazol-1-yl)(cyclopropylmethyl)amino)-2′-cyano-[1,1′-biphenyl]-4-yl sulfamate] | > 60 nM | 53.2 nM
5 | N#Cc1ccc(Cn2nnc3cccnc32)cc1-c1ccc(OS(N)(=O)=O)cc1 [Example 8, 5′-((3H-[1,2,3]Triazolo[4,5-b]pyridin-3-yl)methyl)-2′-cyano-[1,1′-biphenyl]-4-yl sulfamate] | 23.6 nM | 6.3 nM
6 | N#Cc1ccc(Cn2cnc3ccccc32)nc1-c1ccc(OS(N)(=O)=O)cc1 [Example 10, 4-(6-((1H-Benzo[d]imidazol-1-yl)methyl)-3-cyanopyridin-2-yl)phenyl sulfamate] | 9.1 nM | 3.2 nM
7 | N#Cc1ccc(Nn2nnc3ccccc32)cc1-c1ccc(OS(N)(=O)=O)cc1 [Example 11, 5′-(1H-Benzo[d][1,2,3]triazol-1-ylamino)-2′-cyanobiphenyl-4-yl sulfamate] | 18.4 nM | 1.2 nM
8 | N#Cc1ccc(Cn2cnc3cccnc32)cc1-c1ccc(OS(N)(=O)=O)cc1 [Example 12, 5′-((3H-Imidazo[4,5-b]pyridin-3-yl)methyl)-2′-cyano-[1,1′-biphenyl]-4-yl sulfamate] | 7 nM | 0.5 nM
9 | CN(c1ccc(C#N)c(-c2ccc(OS(N)(=O)=O)cc2)c1)n1nnc2ccccc21 [Example 13, 5′-((1H-Benzo[d][1,2,3]triazol-1-yl)(methyl)amino)-2′-cyanobiphenyl-4-yl sulfamate] | > 60 nM | 13.1 nM
10 | N#Cc1cnc(Nn2cnc3ccccc32)nc1-c1ccc(OS(N)(=O)=O)cc1 [Example 15, 4-(2-(1H-Benzo[d]imidazol-1-ylamino)-5-cyanopyrimidin-4-yl)phenyl sulfamate] | 14.6 nM | 17.5 nM
11 | CN(c1ncc(C#N)c(-c2ccc(OS(N)(=O)=O)cc2)n1)n1cnc2ccccc21 [Example 16, 4-(2-((1H-Benzo[d]imidazol-1-yl)(methyl)amino)-5-cyanopyrimidin-4-yl)phenyl sulfamate] | 22 nM | 6.4 nM
12 | CSc1cc(-c2cc(Cn3cnc4ccccc43)ccc2C#N)ccc1OS(N)(=O)=O [Example 18, 5′-((1H-Benzo[d]imidazol-1-yl)methyl)-2′-cyano-3-(methylthio)-[1,1′-biphenyl]-4-yl sulfamate] | 26.4 nM | 1.2 nM
13 | CSc1ccc(-c2cc(Cn3cnc4ccccc43)ccc2C#N)cc1OS(N)(=O)=O [Example 19, 5′-((1H-benzo[d]imidazol-1-yl)methyl)-2′-cyano-4-(methylthio)-[1,1′-biphenyl]-3-yl sulfamate] | > 60 nM | 2.2 nM
14 | CSc1ccc(-c2cc(Nn3cnc4ccccc43)ccc2C#N)cc1OS(N)(=O)=O [Example 21, 5′-((1H-Benzo[d]imidazol-1-yl)amino)-2′-cyano-4-(methylthio)-[1,1′-biphenyl]-3-yl sulfamate] | > 60 nM | 2.2 nM
15 | N#Cc1cnc(Cn2cnc3cccnc32)nc1-c1ccc(OS(N)(=O)=O)cc1 [Example 25, 4-(2-((3H-Imidazo[4,5-b]pyridin-3-yl)methyl)-5-cyanopyrimidin-4-yl)phenyl sulfamate] | 10.7 nM | 6.2 nM
16 | CSc1cc(-c2cc(N(C)n3cnc4ccccc43)ccc2C#N)ccc1OS(N)(=O)=O [Example 27, 5′-((1H-Benzo[d]imidazol-1-yl)(methyl)amino)-2′-cyano-3-(methylthio)-[1,1′-biphenyl]-4-yl sulfamate] | 17.8 nM | 4.6 nM
17 | CSc1ccc(-c2cc(N(C)n3cnc4ccccc43)ccc2C#N)cc1OS(N)(=O)=O [Example 28, 5′-((1H-Benzo[d]imidazol-1-yl)(methyl)amino)-2′-cyano-4-(methylthio)-[1,1′-biphenyl]-3-yl sulfamate] | > 60 nM | 5.8 nM
18 | N#Cc1ccc(Cn2cnc3ccccc32)cc1-c1ccc(OS(N)(=O)=O)cn1 [Example 30, 6-(5-((1H-Benzo[d]imidazol-1-yl)methyl)-2-cyanophenyl)pyridin-3-yl sulfamate] | 7.2 nM | 5.9 nM

Further compounds by falling IC50 (steroid sulfatase), results first:

Row | IC50 (steroid sulfatase) | IC50 (aromatase) | Compound
19 | 52.3 nM | 2.9 nM | CSc1cc(-c2cc(Nn3cnc4ccccc43)ccc2C#N)ccc1OS(N)(=O)=O [Example 20, 5′-((1H-Benzo[d]imidazol-1-yl)amino)-2′-cyano-3-(methylthio)-[1,1′-biphenyl]-4-yl sulfamate]
20 | 37.6 nM | 2.5 nM | CN(c1cc(-c2ccc(OS(N)(=O)=O)cc2)c(C#N)cn1)n1cnc2ccccc21 [Example 29, 4-(2-((1H-Benzo[d]imidazol-1-yl)(methyl)amino)-5-cyanopyridin-4-yl)phenyl sulfamate]
21 | 25.6 nM | 3.2 nM | CN(c1ccc(C#N)c(-c2ccc(OS(N)(=O)=O)cc2)c1)n1cnc2ccccc21 [Example 5, 5′-((1H-Benzo[d]imidazol-1-yl)(methyl)amino)-2′-cyano-[1,1′-biphenyl]-4-yl sulfamate]
22 | 21.7 nM | 7 nM | N#Cc1ccc(Cn2cnc3cccnc32)nc1-c1ccc(OS(N)(=O)=O)cc1 [Example 14, 4-(6-((3H-Imidazo[4,5-b]pyridin-3-yl)methyl)-3-cyanopyridin-2-yl)phenyl sulfamate]
23 | 19.5 nM | 37.6 nM | N#Cc1ncc(Nn2cnc3ccccc32)nc1-c1ccc(OS(N)(=O)=O)cc1 [Example 32, 4-(6-(1H-Benzo[d]imidazol-1-ylamino)-3-cyanopyrazin-2-yl)phenyl sulfamate]
24 | 18.9 nM | > 60 nM | Cc1nc2ccccc2n1Cc1ccc(C#N)c(-c2ccc(OS(N)(=O)=O)cc2)c1 [Example 3, 2′-Cyano-5′-((2-methyl-1H-benzo[d]imidazol-1-yl)methyl)biphenyl-4-yl sulfamate]
25 | 17.6 nM | 9 nM | N#Cc1ccc(Cn2cnc3cccnc32)cc1-c1ccc(OS(N)(=O)=O)cn1 [Example 33, 6-(5-((3H-Imidazo[4,5-b]pyridin-3-yl)methyl)-2-cyanophenyl)pyridin-3-yl sulfamate]
26 | 16.4 nM | > 60 nM | N#Cc1ccc(Cn2c(C(F)(F)F)nc3ccccc32)cc1-c1ccc(OS(N)(=O)=O)cc1 [Example 7, 2′-Cyano-5′-((2-(trifluoromethyl)-1H-benzo[d]imidazol-1-yl)methyl)biphenyl-4-yl sulfamate]
27 | 7.1 nM | 6.5 nM | CN(c1ccc(C#N)c(-c2ccc(OS(N)(=O)=O)cc2)n1)n1cnc2ccccc21 [Example 23, 4-(6-((1H-Benzo[d]imidazol-1-yl)(methyl)amino)-3-cyanopyridin-2-yl)phenyl sulfamate]
